The results in this text go back to patent US12528815B2, “5-amino-8-(4-pyridyl)-[1,2,4]triazolo[4,3-c]pyrimidin-3-one compounds for use against cancer” (Nxera Pharma UK Limited, priority 2020, dated 2026).

Assay [1] concerns the target T1, human adenosine A1 receptor (Homo sapiens, UniProt P30542).
T1 construct: expressed in transfected cells; host or cells: HEK293 cells infected with BacMam (the same paragraph also labels the preparation CHO-hA1)
T1 sequence (P30542 1-326): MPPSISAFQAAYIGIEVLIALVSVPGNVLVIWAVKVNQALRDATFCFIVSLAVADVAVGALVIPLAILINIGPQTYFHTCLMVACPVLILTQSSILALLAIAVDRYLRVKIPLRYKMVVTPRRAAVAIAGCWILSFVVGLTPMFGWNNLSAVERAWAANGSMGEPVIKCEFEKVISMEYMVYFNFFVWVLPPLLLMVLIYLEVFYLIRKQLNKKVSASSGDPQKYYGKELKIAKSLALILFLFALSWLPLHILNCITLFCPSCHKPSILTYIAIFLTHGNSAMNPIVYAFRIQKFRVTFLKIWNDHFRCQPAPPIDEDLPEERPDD
Put plainly: Inhibition binding assay, human adenosine A1 receptor membranes, [3H]DPCPX. To be noted: 1 nM [3H]DPCPX, 25° C., 1 h; IC50 converted to Ki with Cheng-Prusoff; read-out: A1 pKi (converted). How it is done:
(§1) Inhibition binding assays were performed using 0.2 μg of membranes prepared from HEK293 cells infected with BacMam human adenosine A2A receptor or 1.4 μg of membranes prepared from HEK293 cells infected with BacMam human adenosine A1 receptor. Membranes were incubated in 50 mM Tris-HCl (HEK293-hA2A; pH 7.4) or 50 mM Tris-HCl, 100 mM NaCl, 10 mM MgCl2 (CHO-hA1; pH 7.4) in the presence of varying concentrations of test compound and 1 nM [^3H]ZM241385 (HEK293-hA2A) or [^3H]DPCPX (CHO-hA1) at 25° C. for 1 h. The assay was then terminated by rapid filtration onto GF/B grade Unifilter plates using a TomTec cell harvester, followed by 5×0.5 ml washes with ddH2O. Nonspecific binding was defined in the presence of 1 μM CGS15943 (HEK293-hA2A) or 1 μM DPCPX (CHO-hA1). Bound radioactivity was determined by liquid scintillation counting and inhibition curves were analysed using a four-parameter logistic equation. IC50 values were converted to Ki values with the Cheng-Prusoff equation using a KD value derived from saturation binding studies.

In assay [2] the target is T2, human adenosine A2A receptor (Homo sapiens, UniProt P29274).
T2 construct: expressed in transfected cells; host or cells: HEK293 cells infected with BacMam
Put plainly: Inhibition binding assay, human adenosine A2A receptor membranes, [3H]ZM241385. The following applies: 1 nM [3H]ZM241385, HEK293-hA2A membranes, 25° C., 1 h; IC50 converted to Ki with Cheng-Prusoff; read-out: A2A pKi (converted). How it is done: as §1

T2 sequence (P29274 whole entry): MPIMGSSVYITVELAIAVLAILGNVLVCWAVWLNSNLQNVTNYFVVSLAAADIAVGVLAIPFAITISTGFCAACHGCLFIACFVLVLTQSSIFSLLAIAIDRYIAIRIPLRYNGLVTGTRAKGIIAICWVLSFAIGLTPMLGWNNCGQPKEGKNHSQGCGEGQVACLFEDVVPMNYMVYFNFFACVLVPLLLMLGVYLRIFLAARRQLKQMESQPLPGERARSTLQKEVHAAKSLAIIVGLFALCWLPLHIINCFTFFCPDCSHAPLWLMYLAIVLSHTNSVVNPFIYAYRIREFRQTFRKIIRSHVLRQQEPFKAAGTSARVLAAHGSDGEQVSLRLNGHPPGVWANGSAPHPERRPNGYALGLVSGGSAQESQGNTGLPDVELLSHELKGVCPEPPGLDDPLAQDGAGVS

Consider `Cc1cc(-c2c(-c3ccccc3)nc(N)n3c(=O)n(C(C)c4cc(F)ccc4F)nc23)cc(C)n1` (stereo not shown) [Example 1-15, 5-amino-2-[1-(2,5-difluorophenyl)ethyl]-8-(2,6-dimethyl-4-pyridyl)-7-phenyl-[1,2,4]triazolo[4,3-c]pyrimidin-3-one], for which the Ki was 79.4 nM in assay [1] and 1.58 nM in assay [2].

In the case of `[2H]c1c([2H])c([2H])c(-c2nc(N)n3c(=O)n(Cc4ccc(F)c(N)n4)nc3c2-c2cc(C)nc(CO)c2)c([2H])c1[2H]` [Example 1-51, 5-amino-2-[(6-amino-5-fluoro-2-pyridyl)methyl]-8-[2-(hydroxymethyl)-6-methyl-4-pyridyl]-7-(2,3,4,5,6-pentadeuteriophenyl)-[1,2,4]triazolo[4,3-c]pyrimidin-3-one], the Ki in assay [1] was 251 nM; in assay [2] it was 2 nM.

Consider `Cc1cc(-c2c(-c3ccccc3)nc(N)n3c(=O)n([C@@H]4CCCc5ccc(F)cc54)nc23)cc(C)n1` [Example 1-14, (R)-5-amino-8-(2,6-dimethyl-4-pyridyl)-2-(7-fluorotetralin-1-yl)-7-phenyl-[1,2,4]triazolo[4,3-c]pyrimidin-3-one], for which the Ki in assay [1] is 20 nM; in assay [2], 3.16 nM.

In the case of `COc1ncccc1Cn1nc2c(-c3cc(C)nc(C)c3)c(-c3ccccc3)nc(N)n2c1=O` [Example 1-28, 5-amino-8-(2,6-dimethyl-4-pyridyl)-2-[(2-methoxy-3-pyridyl)methyl]-7-phenyl-[1,2,4]triazolo[4,3-c]pyrimidin-3-one], the values for the Ki in assay [1] and in assay [2] were 63.1 nM and 0.2 nM, respectively.

On to `Cc1cc(-c2c(-c3ccccc3)nc(N)n3c(=O)n(CCC(F)(F)F)nc23)cc(Cl)n1` [Example 2-48, 5-amino-8-(2-chloro-6-methyl-4-pyridyl)-7-phenyl-2-(3,3,3-trifluoropropyl)-[1,2,4]triazolo[4,3-c]pyrimidin-3-one], for which the Ki is 6.31 nM in assay [1] and 0.794 nM in assay [2].

In the case of `Cc1cc(-c2c(-c3ccccc3)nc(N)n3c(=O)n(CC4CS(=O)(=O)C4)nc23)cc(C)n1` [Example 2-90, 5-amino-8-(2,6-dimethyl-4-pyridyl)-2-[(1,1-dioxothietan-3-yl)methyl]-7-phenyl-[1,2,4]triazolo[4,3-c]pyrimidin-3-one], the Ki in assay [1] is 794 nM; in assay [2], 50.1 nM.

With `Cc1cc(-c2c(-c3ccccc3)nc(N)n3c(=O)n(C(C)c4ccccn4)nc23)cc(C)n1` (stereo not shown) [Example 1-20, 5-amino-8-(2,6-dimethyl-4-pyridyl)-7-phenyl-2-[1-(2-pyridyl)ethyl]-[1,2,4]triazolo[4,3-c]pyrimidin-3-one], the Ki in assay [1] was 316 nM; in assay [2], 12.6 nM.

Turning to `Cc1cc(-c2c(-c3ccccc3)nc(N)n3c(=O)n(CC4CCNCC4)nc23)cc(C)n1` [Example 2-68, 5-amino-8-(2,6-dimethyl-4-pyridyl)-7-phenyl-2-(4-piperidylmethyl)-[1,2,4]triazolo[4,3-c]pyrimidin-3-one], the Ki in assay [1] is greater than 3160 nM; in assay [2], 398 nM.

For `Cc1cc(-c2c(N3CCOCC3)nc(N)n3c(=O)n(CCC(F)(F)F)nc23)cc(C)n1` [Example 3-1, 5-amino-8-(2,6-dimethyl-4-pyridyl)-7-morpholino-2-(3,3,3-trifluoropropyl)-[1,2,4]triazolo[4,3-c]pyrimidin-3-one], the Ki in assay [1] is greater than 3160 nM; in assay [2], 316 nM.

In the case of `C/C=C(\C)c1nc(N)n2c(=O)n(CCC(F)(F)F)nc2c1-c1cc(C)nc(C)c1` [Example 3-10, 5-amino-8-(2,6-dimethyl-4-pyridyl)-7-[(E)-1-methylprop-1-enyl]-2-(3,3,3-trifluoropropyl)-[1,2,4]triazolo[4,3-c]pyrimidin-3-one], the results for the Ki in assay [1] and in assay [2] were greater than 3160 nM and 10 nM, respectively.

In the case of `Cc1cc(-c2c(-c3ccccc3)nc(N)n3c(=O)n(Cc4ccc(F)c(N)n4)nc23)cc(C)n1` [Example 1-36, 5-amino-2-[(6-amino-5-fluoro-2-pyridyl)methyl]-8-(2,6-dimethyl-4-pyridyl)-7-phenyl-[1,2,4]triazolo[4,3-c]pyrimidin-3-one], the Ki is 100 nM in assay [1] and 0.251 nM in assay [2].
